{"source": "patent US8802597B2", "about": "“Herbicidal pyrimidines” (E I du Pont de Nemours and Company, priority 2003, dated 2014)", "assay_in_all_cases": "Test C pre/postemergence", "assay_type_in_all_cases": "in vivo", "key": {"[1]": {"test_system": "johnsongrass (Sorghum halepense)", "settings": "Sorghum halepense, pre-emergence, Preemergence, read-out: Plant response rating, Johnsongrass", "in_short": "(§1)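 Percent control is a visual rating (0 none, 100 complete) taken against untreated plants after 12 to 14 days of greenhouse growth. Applications were made preemergence to seeded pots and postemergence to plants at the 1- to 4-leaf stage, in a non-phytotoxic surfactant-containing solvent.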"}, "kochia (Kochia scoparia)": {"test_system": "kochia (Kochia scoparia)", "settings": "Bassia scoparia; for pest or weed control at 31 g/ha: 31 g ai/ha; for pest or weed control at 62 g/ha: 62 g ai/ha; for pest or weed control at 125 g/ha: 125 g ai/ha; for pest or weed control at 250 g/ha: 250 g ai/ha", "in_short": "as §1"}, "[2]": {"test_system": "lambsquarters (Chenopodium album)", "settings": "Chenopodium album; for pest or weed control at 31 g/ha: 31 g ai/ha; for pest or weed control at 62 g/ha: 62 g ai/ha; for pest or weed control at 125 g/ha: 125 g ai/ha; for pest or weed control at 250 g/ha: 250 g ai/ha", "in_short": "as §1"}, "[3]": {"test_system": "pigweed (Amaranthus retroflexus)", "settings": "Amaranthus retroflexus; for pest or weed control at 31 g/ha: 31 g ai/ha; for pest or weed control at 62 g/ha: 62 g ai/ha; for pest or weed control at 125 g/ha: 125 g ai/ha; for pest or weed control at 250 g/ha: 250 g ai/ha", "in_short": "as §1"}, "soybean (Glycine max)": {"test_system": "soybean (Glycine max)", "settings": "Glycine max; for plant injury at 31 g/ha: 31 g ai/ha; for plant injury at 62 g/ha: 62 g ai/ha; for plant injury at 125 g/ha: 125 g ai/ha; for plant injury at 250 g/ha: 250 g ai/ha", "in_short": "as §1"}, "[4]": {"test_system": "velvetleaf (Abutilon theophrasti)", "settings": "Abutilon theophrasti; for pest or weed control at 31 g/ha: 31 g ai/ha; for pest or weed control at 62 g/ha: 62 g ai/ha; for pest or weed control at 125 g/ha: 125 g ai/ha; for pest or weed control at 250 g/ha: 250 g ai/ha", "in_short": "as §1"}, "[5]": {"settings": "post-emergence, Postemergence, scale 0 to 100 (0 no effect, 100 complete control), read-out: Kochia plant response rating"}, "[6]": {"settings": "pre-emergence, Preemergence, scale 0 to 100, 0 no effect, 100 complete control, read-out: Plant response rating, Kochia"}, "[7]": {"settings": "pre-emergence, Preemergence, scale 0 to 100, read-out: Plant response rating, Kochia"}, "[8]": {"settings": "post-emergence, Postemergence, scale 0 to 100 (0 no effect, 100 complete control), read-out: Lambsquarters plant response rating"}, "[9]": {"settings": "pre-emergence, Preemergence, scale 0 to 100, 0 no effect, 100 complete control, read-out: Plant response rating, Lambsquarters"}, "[10]": {"settings": "pre-emergence, Preemergence, scale 0 to 100, read-out: Plant response rating, Lambsquarters"}, "[11]": {"settings": "post-emergence, Postemergence, scale 0 to 100 (0 no effect, 100 complete control), read-out: Pigweed plant response rating"}, "[12]": {"settings": "pre-emergence, Preemergence, scale 0 to 100, 0 no effect, 100 complete control, read-out: Plant response rating, Pigweed"}, "[13]": {"settings": "pre-emergence, Preemergence, scale 0 to 100, read-out: Plant response rating, Pigweed"}, "[14]": {"settings": "post-emergence, Postemergence, scale 0 to 100 (0 no effect, 100 complete control), read-out: Soybean plant response rating"}, "[15]": {"settings": "pre-emergence, Preemergence, scale 0 to 100, 0 no effect, 100 complete control, read-out: Plant response rating, Soybean"}, "[16]": {"settings": "pre-emergence, Preemergence, scale 0 to 100, read-out: Plant response rating, Soybean"}, "[17]": {"settings": "post-emergence, Postemergence, scale 0 to 100 (0 no effect, 100 complete control), read-out: Velvetleaf plant response rating"}, "[18]": {"settings": "pre-emergence, Preemergence, scale 0 to 100, 0 no effect, 100 complete control, read-out: Plant response rating, Velvetleaf"}, "[19]": {"settings": "pre-emergence, Preemergence, scale 0 to 100, read-out: Plant response rating, Velvetleaf"}}, "note": "Read-outs that look alike come from different tables or passages of the source.", "data": [{"smiles": "CCOC(=O)c1nc(-c2ccc(Cl)cc2)nc(N)c1Cl", "note": "[Compound 64, ethyl 6-amino-5-chloro-2-(4-chlorophenyl)-4-pyrimidinecarboxylate]", "values": [{"measurement": "pest or weed control at 31 g/ha", "setting": "[1]; 31 g ai/ha, scale 0 to 100, 0 no effect, 100 complete control", "result": 5, "unit": "%"}, {"measurement": "pest or weed control at 62 g/ha", "setting": "[1]; 62 g ai/ha, scale 0 to 100, 0 no effect, 100 complete control", "result": 5, "unit": "%"}, {"measurement": "pest or weed control at 125 g/ha", "setting": "[1]; 125 g ai/ha, scale 0 to 100", "result": 50, "unit": "%"}, {"measurement": "pest or weed control at 250 g/ha", "setting": "[1]; 250 g ai/ha, scale 0 to 100", "result": 60, "unit": "%"}, {"measurement": "pest or weed control at 31 g/ha", "setting": "kochia (Kochia scoparia); post-emergence, Postemergence, read-out: Plant response rating (scale of 0 to 100), Kochia", "result": 80, "unit": "%"}, {"measurement": "pest or weed control at 62 g/ha", "setting": "kochia (Kochia scoparia); [5]", "result": 85, "unit": "%"}, {"measurement": "pest or weed control at 125 g/ha", "setting": "kochia (Kochia scoparia); [5]", "result": 90, "unit": "%"}, {"measurement": "pest or weed control at 250 g/ha", "setting": "kochia (Kochia scoparia); post-emergence, Postemergence, scale 0 to 100, read-out: Plant response rating, Kochia", "result": 90, "unit": "%"}, {"measurement": "pest or weed control at 31 g/ha", "setting": "kochia (Kochia scoparia); [6]", "result": 20, "unit": "%"}, {"measurement": "pest or weed control at 62 g/ha", "setting": "kochia (Kochia scoparia); [6]", "result": 20, "unit": "%"}, {"measurement": "pest or weed control at 125 g/ha", "setting": "kochia (Kochia scoparia); [7]", "result": 25, "unit": "%"}, {"measurement": "pest or weed control at 250 g/ha", "setting": "kochia (Kochia scoparia); [7]", "result": 70, "unit": "%"}, {"measurement": "pest or weed control at 31 g/ha", "setting": "[2]; post-emergence, Postemergence, read-out: Plant response rating (scale of 0 to 100), Lambsquarters", "result": 80, "unit": "%"}, {"measurement": "pest or weed control at 62 g/ha", "setting": "[2]; [8]", "result": 90, "unit": "%"}, {"measurement": "pest or weed control at 125 g/ha", "setting": "[2]; [8]", "result": 90, "unit": "%"}, {"measurement": "pest or weed control at 250 g/ha", "setting": "[2]; post-emergence, Postemergence, scale 0 to 100, read-out: Plant response rating, Lambsquarters", "result": 90, "unit": "%"}, {"measurement": "pest or weed control at 31 g/ha", "setting": "[2]; [9]", "result": 70, "unit": "%"}, {"measurement": "pest or weed control at 62 g/ha", "setting": "[2]; [9]", "result": 95, "unit": "%"}, {"measurement": "pest or weed control at 125 g/ha", "setting": "[2]; [10]", "result": 95, "unit": "%"}, {"measurement": "pest or weed control at 250 g/ha", "setting": "[2]; [10]", "result": 100, "unit": "%"}, {"measurement": "pest or weed control at 31 g/ha", "setting": "[3]; post-emergence, Postemergence, read-out: Plant response rating (scale of 0 to 100), Pigweed", "result": 85, "unit": "%"}, {"measurement": "pest or weed control at 62 g/ha", "setting": "[3]; [11]", "result": 95, "unit": "%"}, {"measurement": "pest or weed control at 125 g/ha", "setting": "[3]; [11]", "result": 100, "unit": "%"}, {"measurement": "pest or weed control at 250 g/ha", "setting": "[3]; post-emergence, Postemergence, scale 0 to 100, read-out: Plant response rating, Pigweed", "result": 100, "unit": "%"}, {"measurement": "pest or weed control at 31 g/ha", "setting": "[3]; [12]", "result": 10, "unit": "%"}, {"measurement": "pest or weed control at 62 g/ha", "setting": "[3]; [12]", "result": 30, "unit": "%"}, {"measurement": "pest or weed control at 125 g/ha", "setting": "[3]; [13]", "result": 100, "unit": "%"}, {"measurement": "pest or weed control at 250 g/ha", "setting": "[3]; [13]", "result": 100, "unit": "%"}, {"measurement": "plant injury at 31 g/ha", "setting": "soybean (Glycine max); post-emergence, Postemergence, read-out: Plant response rating (scale of 0 to 100), Soybean", "result": 90, "unit": "%"}, {"measurement": "plant injury at 62 g/ha", "setting": "soybean (Glycine max); [14]", "result": 90, "unit": "%"}, {"measurement": "plant injury at 125 g/ha", "setting": "soybean (Glycine max); [14]", "result": 100, "unit": "%"}, {"measurement": "plant injury at 250 g/ha", "setting": "soybean (Glycine max); post-emergence, Postemergence, scale 0 to 100, read-out: Plant response rating, Soybean", "result": 100, "unit": "%"}, {"measurement": "plant injury at 31 g/ha", "setting": "soybean (Glycine max); [15]", "result": 0, "unit": "%"}, {"measurement": "plant injury at 62 g/ha", "setting": "soybean (Glycine max); [15]", "result": 85, "unit": "%"}, {"measurement": "plant injury at 125 g/ha", "setting": "soybean (Glycine max); [16]", "result": 85, "unit": "%"}, {"measurement": "plant injury at 250 g/ha", "setting": "soybean (Glycine max); [16]", "result": 85, "unit": "%"}, {"measurement": "pest or weed control at 31 g/ha", "setting": "[4]; post-emergence, Postemergence, read-out: Plant response rating (scale of 0 to 100), Velvetleaf", "result": 80, "unit": "%"}, {"measurement": "pest or weed control at 62 g/ha", "setting": "[4]; [17]", "result": 85, "unit": "%"}, {"measurement": "pest or weed control at 125 g/ha", "setting": "[4]; [17]", "result": 90, "unit": "%"}, {"measurement": "pest or weed control at 250 g/ha", "setting": "[4]; post-emergence, Postemergence, scale 0 to 100, read-out: Plant response rating, Velvetleaf", "result": 95, "unit": "%"}, {"measurement": "pest or weed control at 31 g/ha", "setting": "[4]; [18]", "result": 0, "unit": "%"}, {"measurement": "pest or weed control at 62 g/ha", "setting": "[4]; [18]", "result": 0, "unit": "%"}, {"measurement": "pest or weed control at 125 g/ha", "setting": "[4]; [19]", "result": 0, "unit": "%"}, {"measurement": "pest or weed control at 250 g/ha", "setting": "[4]; [19]", "result": 0, "unit": "%"}]}]}
